A short description of data set [1]: Cysteamine reactivity of the compound in TRIS-HCL assessed as second order rate constant at 40 uM and pH 7.4.
Data set [2] in a line: Thiol reactivity of the compound in PBS/DMSO buffer assessed as pseudo-first order rate constant for adduct formation.
Data set [3] can be described thus: Glutathione reactivity of the compound in DMSO and phosphate buffer assessed as second order rate constant for adduct formation.
Data set [4] relates to rhinovirus B14. Put plainly: Antiviral activity against rhinovirus serotype 14 infected in human H1HeLa cells after 2 days by XTT/PMS dye based assay. Format: functional, cell-based. To be noted: Rhinovirus B, H1-HeLa, 48 h.
Data set [5] in a line: Cytotoxicity against human H1HeLa cells after 2 days by XTT/PMS dye based assay. The data set is classed as cell-based, H1-HeLa.
Data set [6] deals with rhinovirus B14. Briefly: Irreversible inhibition of human rhinovirus serotype 14 3C protease assessed as ratio of Kobs/I by spectrofluorimetric analysis.

Where only a bound is given, the exact number is not on record here.

Take `COc1ccc(C(=O)C(c2ccc([N+](=O)[O-])cc2)C(SCCN)c2ccc(OC)c(OC)c2)c(OC)c1` (stereo unspecified): the K in data set [1] is 0.29 M⁻¹ s⁻¹.

As for `CS(=O)(=O)/C=C/CNC(=O)c1ccccc1`, in data set [2], the K came to 3.9 ×10⁻³ /s.

In the case of `C=C(C)C=O`, the K in data set [3] came out at 203 M⁻¹ s⁻¹.

With `CCCCC/C=C/C=O`, the K in data set [3] is 18 M⁻¹ s⁻¹.

Turning to `O=C(/C=C/c1ccccc1)c1ccccc1`, the K in data set [1] amounted to 3 M⁻¹ s⁻¹.

Take `COc1ccc(C(=O)C(c2ccccc2)C(SCCN)c2ccc(OC)c(OC)c2)c(OC)c1` (stereo unspecified): in data set [1], the K came to 0.0067 M⁻¹ s⁻¹.

With `COc1ccc(C(=O)CC(SCCN)c2ccc(OC)c(OC)c2)c(OC)c1` (stereo unspecified), the K in data set [1] was found to be 0.19 M⁻¹ s⁻¹.

The EC50 is the concentration at which the effect is half-maximal. For orientation: CC50 means the concentration giving 50% cytotoxicity. A high value points to lower toxicity to the cells. With `CC(C)C[C@H](NC(=O)OCc1ccccc1)C(=O)N[C@@H](Cc1ccccc1)C(=O)N[C@H](/C=C/C(=O)n1ccc2ccccc21)CCC(N)=O`, a half-maximal effect in data set [4] (EC50) was put at 1.8 µM. The CC50 at 48 h in data set [5] is 29 µM. In addition, the Ratio in data set [6] is 53000 M⁻¹ s⁻¹.

In the case of `COc1ccc(C(=O)C(C(=O)O)C(SCCN)c2ccc(OC)c(OC)c2)c(OC)c1` (stereo unspecified), the K in data set [1] turned out to be 0.0037 M⁻¹ s⁻¹.

For the molecule `C=CC#CC(C)=O`, in data set [3], the K amounted to 80 M⁻¹ s⁻¹.

Molecule `CC(C)C[C@H](NC(=O)OCc1ccccc1)C(=O)N[C@@H](Cc1ccccc1)C(=O)N[C@H](/C=C/C(=O)c1ccccc1)CCC(N)=O` yielded an EC50 in data set [4] of 4 µM. It took 16 µM to reach half-maximal cytotoxicity in data set [5] (CC50 at 48 h). Besides, the Ratio in data set [6] amounted to 500000 M⁻¹ s⁻¹.

In the case of `CCCC/C=C/C(C)=O`, the K in data set [3] was 11.4 M⁻¹ s⁻¹.

In data set [4], `COC(=O)/C=C\[C@H](CCC(N)=O)NC(=O)[C@H](Cc1ccccc1)NC(=O)[C@H](CC(C)C)NC(=O)OCc1ccccc1` came in with an EC50 of 4.2 µM. In data set [5], the CC50 at 48 h is > 320 µM. In addition, in data set [6], the Ratio was determined as 2400 M⁻¹ s⁻¹.

In the case of `O=C/C=C/c1ccccc1`, the K in data set [1] was determined as 0.64 M⁻¹ s⁻¹.

`C=CC(=O)OCC`: in data set [3], the K was 10.6 M⁻¹ s⁻¹.

On to `C=CC(=O)Nc1ccc([N+](=O)[O-])cc1`, for which the K in data set [2] is 8 ×10⁻² /s.

As for `C=CCOC(=O)C=C`, the K in data set [3] amounted to 19.6 M⁻¹ s⁻¹.

Turning to `CC(=O)C=C(C)C`, the K in data set [3] was 0.208 M⁻¹ s⁻¹.

On to `COC(=O)/C=C/CNC(=O)c1ccccc1`, for which the K in data set [2] turned out to be 3.7 ×10⁻⁴ /s.

With `CCOC(=O)/C(F)=C/[C@H](CCC(N)=O)NC(=O)[C@H](Cc1ccccc1)NC(=O)[C@H](CC(C)C)NC(=O)OCc1ccccc1`, the EC50 in data set [4] was > 320 µM. In addition, the cytotoxic concentration (CC50) at 48 h in data set [5] is > 320 µM. In addition, the Ratio in data set [6] came out at 60 M⁻¹ s⁻¹.

For the molecule `C#CCOC(=O)C=C`, the K in data set [3] worked out at 51.4 M⁻¹ s⁻¹.

Consider `C=CS(=O)(=O)Nc1ccc([N+](=O)[O-])cc1`, for which the K in data set [2] was 9 ×10⁻³ /s.

With `CCNC(=O)/C=C/[C@H](CCC(N)=O)NC(=O)[C@H](Cc1ccccc1)NC(=O)[C@H](CC(C)C)NC(=O)OCc1ccccc1`, the EC50 in data set [4] was > 320 µM. The half-maximal cytotoxic concentration (CC50) at 48 h in data set [5] is > 320 µM. Further, in data set [6], the Ratio was 350 M⁻¹ s⁻¹.

For the molecule `COC(=O)/C=C/CNC(=O)c1ccc(OC)cc1`, the K in data set [2] came to 3.7 ×10⁻⁴ /s.

As for `C=CC(=O)Nc1ccc(OC)cc1`, the K in data set [2] is 3.9 ×10⁻⁵ /s.

As to `CC1=CCCC1=O`, in data set [3], the K was 0.2 M⁻¹ s⁻¹.

Turning to `CCCCC/C=C/C(=O)OC`, the K in data set [3] was determined as 0.785 M⁻¹ s⁻¹.

Molecule `CC(C)C[C@H](NC(=O)OCc1ccccc1)C(=O)N[C@@H](Cc1ccccc1)C(=O)N[C@H](/C=C1\CCOC1=O)CCC(N)=O` had a half-maximal effective concentration (EC50) in data set [4] of 5.2 µM. The CC50 at 48 h in data set [5] was > 320 µM. In addition, the Ratio in data set [6] was 10900 M⁻¹ s⁻¹.

As for `C=C(C=O)CC`, the K in data set [3] worked out at 59.4 M⁻¹ s⁻¹.

Consider `CC(C)C[C@H](NC(=O)OCc1ccccc1)C(=O)N[C@@H](Cc1ccccc1)C(=O)N[C@H](/C=C/C(=O)c1ccc([N+](=O)[O-])cc1)CCC(N)=O`, for which the EC50 in data set [4] was > 32 µM. In addition, the CC50 at 48 h in data set [5] was found to be 32 µM. For the same molecule, the Ratio in data set [6] turned out to be 310000 M⁻¹ s⁻¹.

Turning to `C=CS(=O)(=O)Nc1ccccc1`, the K in data set [2] worked out at 7.2 ×10⁻² /s.

As to `C/C=C(\C)C(=O)OC`, the K in data set [3] was determined as 0.007 M⁻¹ s⁻¹.

In the case of `C/C=C(\C)C(C)=O`, the K in data set [3] came to 0.779 M⁻¹ s⁻¹.

In the case of `CC(C)C[C@H](NC(=O)OCc1ccccc1)C(=O)N[C@@H](Cc1ccccc1)C(=O)N[C@H](/C=C/C(=O)O)CCC(N)=O`, the EC50 in data set [4] is > 100 µM. In addition, the cytotoxic concentration (CC50) at 48 h in data set [5] was > 100 µM. For the same molecule, the Ratio in data set [6] was 30 M⁻¹ s⁻¹.

With `CC/C=C/C=O`, the K in data set [3] turned out to be 28.3 M⁻¹ s⁻¹.

For the molecule `COc1ccc(C(=O)C(Cl)C(SCCN)c2ccc(OC)c(OC)c2)c(OC)c1` (stereo unspecified), in data set [1], the K is 1.6 M⁻¹ s⁻¹.

For the molecule `CCOC(=O)/C=C/[C@H](CCC(N)=O)NC(=O)[C@H](Cc1ccccc1)NC(=O)[C@H](CC(C)C)NC(=O)OCc1ccccc1`, the CC50 at 48 h in data set [5] was > 320 µM.

For `COc1ccc(C(C(=O)c2ccc(OC)cc2OC)C(SCCN)c2ccc(OC)c(OC)c2)cc1` (stereo unspecified), the K in data set [1] came to 0.0086 M⁻¹ s⁻¹.

For `CCOC(=O)C(C(=O)c1ccc(OC)cc1OC)C(SCCN)c1ccc(OC)c(OC)c1` (stereo unspecified), the K in data set [1] stood at 0.28 M⁻¹ s⁻¹.

`CC(C)C[C@H](NC(=O)OCc1ccccc1)C(=O)N[C@@H](Cc1ccccc1)C(=O)N[C@H](/C=C/C(=O)N1CC=CC1)CCC(N)=O`: the EC50 in data set [4] was > 44 µM. In addition, in data set [5], the 50% cytotoxic concentration (CC50) at 48 h was 44 µM. Moreover, in data set [6], the Ratio amounted to 8500 M⁻¹ s⁻¹.

Take `COc1ccc(C(=O)C(I)C(SCCN)c2ccc(OC)c(OC)c2)c(OC)c1` (stereo unspecified): in data set [1], the K was found to be 0.28 M⁻¹ s⁻¹.

On to `COc1ccc(C(=O)C(F)C(SCCN)c2ccc(OC)c(OC)c2)c(OC)c1` (stereo unspecified), for which the K in data set [1] was found to be 0.017 M⁻¹ s⁻¹.

On to `C/C=C/C(C)=O`, for which the K in data set [3] stood at 26.7 M⁻¹ s⁻¹.

`CC(C)C[C@H](NC(=O)OCc1ccccc1)C(=O)N[C@@H](Cc1ccccc1)C(=O)N[C@H](/C=C/C(=O)N(C)C)CCC(N)=O` returned an EC50 in data set [4] of 56 µM. Moreover, the cytotoxic concentration (CC50) at 48 h in data set [5] was > 100 µM. Besides, the Ratio in data set [6] came out at 1300 M⁻¹ s⁻¹.

As for `C/C=C/C(=O)OC`, the K in data set [3] was determined as 0.164 M⁻¹ s⁻¹.

For `C=CC(=O)Nc1ccccc1`, the K in data set [2] was found to be 1.6 ×10⁻⁴ /s.

As for `C=CS(=O)(=O)Nc1ccc(OC)cc1`, the K in data set [2] is 2.8 ×10⁻² /s.

With `CCCC/C=C/C=C/C=O`, the K in data set [3] was determined as 3.49 M⁻¹ s⁻¹.

With `CCC/C=C/C/C=C/C=O`, in data set [3], the K turned out to be 22.8 M⁻¹ s⁻¹.

Regarding `COc1cc(/C=C/C(=O)CC(=O)/C=C/c2ccc(O)c(OC)c2)ccc1O`, the K in data set [1] was determined as 0.066 M⁻¹ s⁻¹.

On to `CC(=O)/C=C/[C@H](CCC(N)=O)NC(=O)[C@H](Cc1ccccc1)NC(=O)[C@H](CC(C)C)NC(=O)OCc1ccccc1`, for which the EC50 in data set [4] turned out to be 2 µM. This molecule also gave a CC50 at 48 h in data set [5] of 60 µM. In addition, in data set [6], the Ratio came out at 54000 M⁻¹ s⁻¹.

Consider `CCN(CC)c1ccc(C(=O)/C=C/[C@H](CCC(N)=O)NC(=O)[C@H](Cc2ccccc2)NC(=O)[C@H](CC(C)C)NC(=O)OCc2ccccc2)cc1`, for which the EC50 in data set [4] was > 25 µM. In addition, in data set [5], the cytotoxic concentration (CC50) at 48 h is 25 µM. Also, the Ratio in data set [6] came to 4500 M⁻¹ s⁻¹.

`COc1ccc(C(=O)C(C)C(SCCN)c2ccc(OC)c(OC)c2)c(OC)c1` (stereo unspecified): the K in data set [1] came to 0.0075 M⁻¹ s⁻¹.

Take `COC(=O)/C=C/[C@H](CCC(N)=O)NC(=O)[C@H](Cc1ccccc1)NC(=O)[C@H](CC(C)C)NC(=O)OCc1ccccc1`: the concentration giving a half-maximal response (EC50) in data set [4] was found to be 1.3 µM. Also, the 50% cytotoxic concentration (CC50) at 48 h in data set [5] was > 320 µM. For the same molecule, the Ratio in data set [6] amounted to 20000 M⁻¹ s⁻¹.

Molecule `CC(=O)N1CC/C(=C\[C@H](CCC(N)=O)NC(=O)[C@H](Cc2ccccc2)NC(=O)[C@H](CC(C)C)NC(=O)OCc2ccccc2)C1=O` had a 50% effective concentration (EC50) in data set [4] of 0.71 µM. The cytotoxic concentration (CC50) at 48 h in data set [5] was > 100 µM. Also, the Ratio in data set [6] was determined as 156000 M⁻¹ s⁻¹.

Take `CCOC(=O)/C(C)=C/[C@H](CCC(N)=O)NC(=O)[C@H](Cc1ccccc1)NC(=O)[C@H](CC(C)C)NC(=O)OCc1ccccc1`: the half-maximal effective concentration (EC50) in data set [4] worked out at 3 µM. Also, the CC50 at 48 h in data set [5] is > 320 µM. Moreover, in data set [6], the Ratio stood at 7300 M⁻¹ s⁻¹.

In the case of `CC(C)C[C@H](NC(=O)OCc1ccccc1)C(=O)N[C@@H](Cc1ccccc1)C(=O)N[C@H](/C=C/C(=O)N1CCOC1=O)CCC(N)=O`, in data set [4], the 50% effective concentration (EC50) was 1.6 µM. Moreover, in data set [5], the CC50 at 48 h was > 100 µM. Besides, the Ratio in data set [6] worked out at 600000 M⁻¹ s⁻¹.

For the molecule `C=CC(=O)OCCCC`, the K in data set [3] came to 8.54 M⁻¹ s⁻¹.

On to `CC(C)=CC=O`, for which the K in data set [3] came to 1.71 M⁻¹ s⁻¹.

Source of the values: ChEMBL document CHEMBL4024702, “Covalent Modifiers: A Chemical Perspective on the Reactivity of α,β-Unsaturated Carbonyls with Thiols via Hetero-Michael Addition Reactions” (J Med Chem, 2017).
